Data from patent US7053088B2, “Vanilloid receptor ligands and their use in treatments” (Amgen Inc., priority 2002, dated 2006).

SMILES | melting point [°C]
Cc1ccccc1Nc1cc(-c2ccc(C(F)(F)F)cc2)ncn1 [Example 64] | 117 to 119
CC(=O)Nc1nc2c(Nc3cc(-c4ccc(C(F)(F)F)cc4)ncn3)cccc2s1 [N-{4-[6-(4-Trifluoromethylphenyl)pyrimidin-4-ylamino]benzothiazol-2-yl}acetamide] | > 250
FC(F)(F)c1ccc(-c2cc(Nc3ccc(Cl)cc3)ncn2)cc1 [(4-chlorophenyl)-[6-(4-trifluoromethylphenyl)pyrimidin-4-yl]amine] | 193 to 196
Nc1cc(C(F)(F)F)ccc1-c1cc(Nc2ccc3ncsc3c2)ncn1 [[6-(2-Amino-4-trifluoromethylphenyl)pyrimidin-4-yl]benzothiazol-6-ylamine] | 203.1 to 203.2
Cc1c(Cl)cccc1Nc1cc(-c2ccc(C(F)(F)F)cc2)ncn1 [Example 57] | 148 to 150
Nc1nc2c(Nc3cc(-c4ccc(C(F)(F)F)cc4)ncn3)cccc2s1 [N^4-[6-(4-Trifluoromethylphenyl)pyrimidin-4-yl]benzothiazole-2,4-diamine] | 225 to 227
CC(C)(C)c1ccc(-c2cc(Nc3ccccc3)ncn2)cc1 [[6-(4-tert-butylphenyl)pyrimidin-4-yl]phenylamine] | 166
